Source: publication PMC10778976, “BAY-3827 and SBI-0206965: Potent AMPK Inhibitors That Paradoxically Increase Thr172 Phosphorylation” (International Journal of Molecular Sciences, 2023)
“And” between values parts separate entries of the source, which are not always exact repeats. Identical values can stand only once. Like-named read-outs stand apart in the source and are kept apart here.

What was measured:
[1] = test system: native AMPK purified from rat liver; experiment: Cell-free kinase assay of purified rat liver AMPK; format: biochemical; settings: ATP 200 µM; for IC50: read-out: IC50, inhibition of rat liver AMPK complexes
Description: AMPK assays measured the transfer of radioactivity from labelled ATP to a peptide substrate, which was separated from unreacted ATP by binding to P81 paper. This assay was described previously, except that we used [γ-^33P]ATP rather than [γ-^32P]ATP. The peptide substrate was the AMARA peptide in all experiments other than one, which analyzed allosteric activation by AMP (Figure 2A), when, for technical reasons, the SAMS peptide was used instead. […] After each wash, the pellet was recovered via centrifugation (16,000× g, 3 min) and then resuspended. The final resuspended pellets from each biological replicate were divided into two aliquots (40 µg lysate protein) to provide technical replicates and assayed as above.

human α1β1γ1 complex = human α1β1γ1 complex (Homo sapiens, UniProt Q13131); experiment: Cell-free kinase assay of bacterially expressed human α1β1γ1 complex phosphorylated on Thr172 by CaMKK2; format: biochemical; settings: ATP 200 µM; read-out: IC50, inhibition of human α1β1γ1 complex
Description: AMPK assays measured the transfer of radioactivity from labelled ATP to a peptide substrate, which was separated from unreacted ATP by binding to P81 paper. This assay was described previously, except that we used [γ-^33P]ATP rather than [γ-^32P]ATP. The peptide substrate was the AMARA peptide in all experiments other than one, which analyzed allosteric activation by AMP (Figure 2A), when, for technical reasons, the SAMS peptide was used instead. With purified preparations of AMPK, it was assayed in solution, but for assays in cell lysates (Figure 3D and Figure 4D), it was first immunoprecipitated using a mixture of anti-α1 and -α2 antibodies and assayed in resuspended immunoprecipitates. After the initial immunoprecipitation of lysate containing 80 µg of protein, the pellets were washed twice with 1 mL of high salt IP buffer (50 mM Tris-HCL, pH 7.4 at 4 °C, 1 M NaCl, 1 mM EDTA, 1 mM EGTA, 50 mM NaF, 5 mM Na pyrophosphate, 1 mM dithiothreitol, 0.1% (v/v) Triton X-100) and twice with 1 mL of low salt IP buffer (as above but only 150 mM NaCl), followed by a final wash in 1 mL of assay buffer (50 mM Na Hepes, pH7.4, 150 mM NaCl, 1 mM dithiothreitol, 0.02% (v/v) Brij-35). After each wash, the pellet was recovered via centrifugation (16,000× g, 3 min) and then resuspended. […]

[2] = target: T1, isolated kinase domain of the human α2 isoform (residues 1–310) (Homo sapiens, UniProt P54646); experiment: Cell-free kinase assay of isolated α2 kinase domain phosphorylated on Thr172 by CaMKK2; format: biochemical; settings: for IC50: ATP 200 µM, read-out: IC50, inhibition of human α2 kinase domain
T1 construct: human GST-tagged α2 kinase domain (1–310) was produced as described; GST; made in house
Description: (§1) AMPK assays measured the transfer of radioactivity from labelled ATP to a peptide substrate, which was separated from unreacted ATP by binding to P81 paper. This assay was described previously, except that we used [γ-^33P]ATP rather than [γ-^32P]ATP. The peptide substrate was the AMARA peptide in all experiments other than one, which analyzed allosteric activation by AMP (Figure 2A), when, for technical reasons, the SAMS peptide was used instead. With purified preparations of AMPK, it was assayed in solution, but for assays in cell lysates (Figure 3D and Figure 4D), it was first immunoprecipitated using a mixture of anti-α1 and -α2 antibodies and assayed in resuspended immunoprecipitates. After the initial immunoprecipitation of lysate containing 80 µg of protein, the pellets were washed twice with 1 mL of high salt IP buffer (50 mM Tris-HCL, pH 7.4 at 4 °C, 1 M NaCl, 1 mM EDTA, 1 mM EGTA, 50 mM NaF, 5 mM Na pyrophosphate, 1 mM dithiothreitol, 0.1% (v/v) Triton X-100) and twice with 1 mL of low salt IP buffer (as above but only 150 mM NaCl), followed by a final wash in 1 mL of assay buffer (50 mM Na Hepes, pH7.4, 150 mM NaCl, 1 mM dithiothreitol, 0.02% (v/v) Brij-35). After each wash, the pellet was recovered via centrifugation (16,000× g, 3 min) and then resuspended. The final resuspended pellets from each biological replicate were divided into two aliquots (40 µg lysate protein) to provide technical replicates and assayed as above.
Bacterially expressed heterotrimers and kinase domain constructs (Figure 1B–D) were activated through Thr172 phosphorylation using ATP and GST-tagged CaMKK2, and CaMKK2 was removed via passage through glutathione-Sepharose, as described previously.

[3] = test system: acetyl-CoA carboxylase (ACC, Ser80) phosphorylation in U2OS cells; experiment: ACC phosphorylation in U2OS cells (Western blot); format: cell-based, human; settings: 30 min inhibitor then 30 min MK-8722 (300 nM), read-out: IC50, inhibition of MK-8722-stimulated ACC phosphorylation
Procedure: (§2) T-Rex U2OS cells carrying a Flp Recombinase Target (FRT) site were generated as described previously and grown in Dulbecco’s Modified Eagle’s Medium (DMEM) supplemented with 10% (v/v) FBS and 1% (v/v) penicillin/streptomycin.
(§3) Cells were lysed rapidly in situ on culture plates using ice-cold lysis medium containing phosphatase inhibitors, as described previously.
(§4) SDS-PAGE was performed using precast NuPAGE Tris-acetate 3–8% gradient polyacrylamide gels in Tris-acetate running buffer when analyzing ACC, GBF1, or Raptor, or NuPAGE Bis-Tris 4–12% gradient polyacrylamide gels in the MOPS buffer system (ThermoFisher Scientific, Waltham, MA, USA) for other proteins (unless stated otherwise). Proteins were transferred to nitrocellulose membranes using the iBlot 2 system (ThermoFisher Scientific). Membranes were enhanced if necessary using SuperSignal Western Blot Enhancer (ThermoFisher Scientific), then blocked for 1 h in Li-Cor Odyssey blocking buffer. The membranes were probed with the appropriate primary antibody ([…]) overnight at 4 °C. Detection was performed using secondary antibody or streptavidin probe (for total ACC) coupled to IR 680 or IR 800 dye, and the membranes were scanned using the LICOR Odyssey IR imager. Protein concentrations were determined by Coomassie Blue binding with bovine serum albumin as a standard. The cellular levels of AMP and ATP were determined via direct perchloric acid extraction from cells, with LC:MS used to estimate the levels of each nucleotide.

[4] = test system: Raptor (Ser792) phosphorylation in U2OS cells; experiment: Raptor phosphorylation in U2OS cells (Western blot); format: cell-based, human; settings: 30 min inhibitor then 30 min MK-8722 (300 nM), read-out: IC50, inhibition of MK-8722-stimulated Raptor phosphorylation
Procedure: as §2, §3, §4

[5] = test system: GBF1 (Thr1337) phosphorylation in U2OS cells; experiment: GBF1 phosphorylation in U2OS cells (Western blot); format: cell-based, human; settings: 30 min inhibitor then 30 min MK-8722 (300 nM), read-out: IC50, inhibition of MK-8722-stimulated GBF1 phosphorylation
Procedure: as §2, §3, §4

AMPK in U2OS cells = experiment: AMPK activity in anti-α1/-α2 immunoprecipitates from treated U2OS cells; format: cell-based, human
Description: as §2, §3, §1

U2OS cells = experiment: Cellular AMP:ATP ratio via LC:MS in U2OS cells; format: cell-based, human
Procedure: as §2, §4

PPM1A = test system: T2, PPM1A; experiment: PPM1A activity using p-nitrophenyl phosphate; format: biochemical; settings: p-nitrophenyl phosphate substrate, concentrations as in Figure 5A
T2 construct: made in house
Procedure: To directly determine LKB1 activity, kinase assays were performed in the presence or absence of the indicated concentration of BAY-3827 or SBI-0206965 as for AMPK, except that LKBtide was used as a peptide substrate. PPM1A activity was determined using p-nitrophenyl phosphate (pNPP) as a substrate. PPM1A (5 µg) was incubated with 50 mM pNPP and 50 mM MgCl2 in Hepes buffer in the presence of a vehicle or the indicated concentration of BAY-3827 or SBI-0206965 for 10 min at 30 °C. The reaction was quenched by the addition of 1 mL of 0.5 M EDTA and the amount of product, p-nitrophenol, determined by measuring absorbance at 405 nm.

Chain of human α1β1γ1 complex (Q13131 whole entry): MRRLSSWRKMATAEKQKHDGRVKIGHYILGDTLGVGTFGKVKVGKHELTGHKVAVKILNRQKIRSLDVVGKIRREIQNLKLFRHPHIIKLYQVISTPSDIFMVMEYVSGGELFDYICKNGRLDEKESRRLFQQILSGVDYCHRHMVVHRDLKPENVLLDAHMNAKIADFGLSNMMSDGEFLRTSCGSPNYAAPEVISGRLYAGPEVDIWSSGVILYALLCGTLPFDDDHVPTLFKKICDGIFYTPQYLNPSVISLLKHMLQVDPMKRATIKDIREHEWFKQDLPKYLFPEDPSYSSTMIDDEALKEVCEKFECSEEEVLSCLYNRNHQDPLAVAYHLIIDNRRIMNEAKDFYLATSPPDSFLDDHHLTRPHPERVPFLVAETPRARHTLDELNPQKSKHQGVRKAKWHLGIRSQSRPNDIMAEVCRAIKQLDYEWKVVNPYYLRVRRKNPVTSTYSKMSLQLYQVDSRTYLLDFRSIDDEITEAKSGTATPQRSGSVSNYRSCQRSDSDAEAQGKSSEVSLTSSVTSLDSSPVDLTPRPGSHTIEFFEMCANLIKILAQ
Chain of human α1β1γ1 complex (P54619 whole entry, further chain): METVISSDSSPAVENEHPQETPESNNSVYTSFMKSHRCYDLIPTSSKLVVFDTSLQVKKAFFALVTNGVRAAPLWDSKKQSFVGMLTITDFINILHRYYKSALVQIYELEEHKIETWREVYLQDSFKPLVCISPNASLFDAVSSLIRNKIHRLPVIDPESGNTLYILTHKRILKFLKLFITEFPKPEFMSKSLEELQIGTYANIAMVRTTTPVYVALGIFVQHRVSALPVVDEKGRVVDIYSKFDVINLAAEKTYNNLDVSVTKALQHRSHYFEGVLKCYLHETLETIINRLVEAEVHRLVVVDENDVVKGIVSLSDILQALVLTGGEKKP
Chain of human α1β1γ1 complex (Q9Y478 2-270, further chain): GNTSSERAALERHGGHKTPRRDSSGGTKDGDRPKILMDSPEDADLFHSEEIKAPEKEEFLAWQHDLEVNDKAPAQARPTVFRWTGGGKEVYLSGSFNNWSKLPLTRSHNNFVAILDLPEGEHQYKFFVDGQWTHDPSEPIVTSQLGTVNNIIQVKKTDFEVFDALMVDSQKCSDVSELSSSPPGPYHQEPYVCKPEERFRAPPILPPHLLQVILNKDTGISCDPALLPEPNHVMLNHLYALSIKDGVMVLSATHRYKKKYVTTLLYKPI
T1 sequence (P54646 1-310): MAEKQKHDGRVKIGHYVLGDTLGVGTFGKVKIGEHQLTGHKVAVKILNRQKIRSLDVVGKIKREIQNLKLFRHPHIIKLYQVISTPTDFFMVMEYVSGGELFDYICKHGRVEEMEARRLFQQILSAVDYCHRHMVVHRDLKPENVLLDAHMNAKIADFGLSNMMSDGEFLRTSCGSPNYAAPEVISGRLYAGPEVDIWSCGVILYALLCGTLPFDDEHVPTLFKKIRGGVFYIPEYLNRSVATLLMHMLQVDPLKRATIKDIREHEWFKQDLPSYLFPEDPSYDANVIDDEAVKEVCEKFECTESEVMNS

| Apparent Vmax ([2]; BAY-3827 10 nM) | Apparent Vmax ([2]; BAY-3827 30 nM) | Apparent Vmax ([2]; BAY-3827 100 nM) | Apparent Vmax ([2]; BAY-3827 300 nM) | IC50 ([3]; Homo sapiens, U2OS, 0.5 h) | IC50 ([4]; Homo sapiens, 0.5 h) | IC50 ([5]; Homo sapiens, 0.5 h) | EC50 (AMPK in U2OS cells; Homo sapiens, U2OS cells treated with inhibitor and MK-8722, read-out: EC50, activation of AMPK activity in immunoprecipitates) | Compound | fold more potent than SBI-0206965 against purified rat liver AMPK [1] | IC50 [1] | IC50 (human α1β1γ1 complex) | IC50 [2] | IC50 [3] | Activation of AMPK activity in immunoprecipitates (AMPK in U2OS cells; U2OS cells treated with inhibitor and MK-8722) | effect on cellular AMP:ATP ratios (U2OS cells; all concentrations used) | effect on activity of PPM1A (PPM1A) | IC50 [4] | IC50 [5] | effect on AMPK activity in immunoprecipitates (AMPK in U2OS cells; U2OS cells, MK-8722 and increasing concentrations of inhibitor) | increase in cellular AMP:ATP ratio (U2OS cells; 300 µM, 1 h incubation) |
| --- | --- | --- | --- | --- | --- | --- | --- | --- | --- | --- | --- | --- | --- | --- | --- | --- | --- | --- | --- | --- |
| 2.09 µmol/min/mg | 1.78 µmol/min/mg | 1.69 µmol/min/mg | 1.27 µmol/min/mg | 260 nM | 113 nM | 55 nM | 84 nM | CCc1ccccc1C(=O)Nc1n[nH]c2c(C)c(F)c(C3C(C#N)=C(C)N(C)C(C)=C3C#N)cc12 [BAY-3827] | > 20 fold | 17 nM | 25 nM | 89 nM | 270 nM | 2.5 fold | did not cause any change | Lack of effect | – | – | – | – |
| – | – | – | – | – | – | – | – | CNC(=O)c1ccccc1Oc1nc(Nc2cc(OC)c(OC)c(OC)c2)ncc1Br [SBI-0206965] | – | 360 nM | 247 nM and 250 nM | 545 nM | 42000 nM | – | – | Lack of effect | 9200 nM | 12000 nM | increased with a similar biphasic pattern | > 30 fold |
